Key:
[1] = target: T1, DGKζ (Homo sapiens, UniProt Q13574); assay: In vitro DGKζ inhibition assay (ADP-Glo); assay type: biochemical; details: His-tagged human recombinant DGKζ 0.4 nM, 30 μM ATP, 20 μM DLG, 90 minute incubation
T1 construct: His; purchased Signal Chem D30-10H
Summary of the method: (§1)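 His-tagged human DGKα (0.1 nM, 50 μM ATP) or DGKζ (0.4 nM, 30 μM ATP), each with 20 μM DLG lipid substrate, in Tris pH 7.5 buffer with Mg2+, Ca2+, CHAPS.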

[2] = target: T2, DGKα (Homo sapiens, UniProt P23743); assay: In vitro DGKα inhibition assay (ADP-Glo); assay type: biochemical; details: His-tagged human recombinant DGKα 0.1 nM, 50 μM ATP, 20 μM DLG, 90 minute incubation
T2 construct: His; purchased Signal Chem D21-10BH
Summary of the method: as §1

T2 sequence (P23743 whole entry): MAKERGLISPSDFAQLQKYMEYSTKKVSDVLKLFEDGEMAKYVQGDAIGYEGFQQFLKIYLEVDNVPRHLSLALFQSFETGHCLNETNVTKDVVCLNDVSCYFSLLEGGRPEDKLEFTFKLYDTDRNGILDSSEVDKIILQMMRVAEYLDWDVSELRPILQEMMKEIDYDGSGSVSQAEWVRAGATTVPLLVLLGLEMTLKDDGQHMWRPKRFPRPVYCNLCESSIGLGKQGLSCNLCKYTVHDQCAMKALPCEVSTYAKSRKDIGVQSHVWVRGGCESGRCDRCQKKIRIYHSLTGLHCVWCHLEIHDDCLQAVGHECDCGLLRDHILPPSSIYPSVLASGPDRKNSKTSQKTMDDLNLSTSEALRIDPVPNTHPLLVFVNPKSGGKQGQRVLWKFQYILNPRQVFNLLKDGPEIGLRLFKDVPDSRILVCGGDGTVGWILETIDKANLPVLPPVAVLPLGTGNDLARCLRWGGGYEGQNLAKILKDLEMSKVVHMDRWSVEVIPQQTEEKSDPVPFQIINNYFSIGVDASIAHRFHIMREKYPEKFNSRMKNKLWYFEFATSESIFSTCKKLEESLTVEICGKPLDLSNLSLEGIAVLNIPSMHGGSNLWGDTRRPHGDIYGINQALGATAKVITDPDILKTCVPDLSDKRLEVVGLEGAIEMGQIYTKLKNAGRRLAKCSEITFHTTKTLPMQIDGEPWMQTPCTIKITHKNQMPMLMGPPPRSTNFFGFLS
T1 sequence (Q13574 whole entry): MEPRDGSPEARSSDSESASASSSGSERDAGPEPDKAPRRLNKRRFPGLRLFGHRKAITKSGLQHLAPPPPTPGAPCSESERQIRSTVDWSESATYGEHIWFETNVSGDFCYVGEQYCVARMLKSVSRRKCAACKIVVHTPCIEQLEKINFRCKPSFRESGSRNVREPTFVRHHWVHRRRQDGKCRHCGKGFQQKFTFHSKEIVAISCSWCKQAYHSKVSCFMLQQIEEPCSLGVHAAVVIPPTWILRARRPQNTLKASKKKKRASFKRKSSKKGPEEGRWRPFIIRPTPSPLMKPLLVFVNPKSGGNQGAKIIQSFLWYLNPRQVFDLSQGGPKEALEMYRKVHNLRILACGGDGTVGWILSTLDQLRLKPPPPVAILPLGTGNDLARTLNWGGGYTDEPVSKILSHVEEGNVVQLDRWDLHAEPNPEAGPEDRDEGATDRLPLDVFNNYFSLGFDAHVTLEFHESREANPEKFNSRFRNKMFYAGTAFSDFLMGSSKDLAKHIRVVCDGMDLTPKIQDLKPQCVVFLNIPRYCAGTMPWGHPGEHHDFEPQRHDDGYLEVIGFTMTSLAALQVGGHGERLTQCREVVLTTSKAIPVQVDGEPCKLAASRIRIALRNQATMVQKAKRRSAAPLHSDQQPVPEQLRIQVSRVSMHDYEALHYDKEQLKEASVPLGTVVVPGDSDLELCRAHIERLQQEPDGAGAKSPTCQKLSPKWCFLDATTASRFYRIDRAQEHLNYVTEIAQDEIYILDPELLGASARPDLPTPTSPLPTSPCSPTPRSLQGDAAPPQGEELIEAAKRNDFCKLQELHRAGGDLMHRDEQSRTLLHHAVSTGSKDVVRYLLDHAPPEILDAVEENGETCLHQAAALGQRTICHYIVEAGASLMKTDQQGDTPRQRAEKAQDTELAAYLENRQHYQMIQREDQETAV

Cc1nc2c(N3C[C@@H](C)N([C@H](c4ccc(Cl)cc4)C(C)C)C[C@@H]3C)cc3nncn3c2n1C[C@@H]1CCCO1 [Example 65, 4-((2S,5R)-4-((S)-1-(4-Chlorophenyl)-2-methylpropyl)-2,5-dimethylpiperazin-1-yl)-2-methyl-1-(((S)-tetrahydrofuran-2-yl)methyl)-1H-imidazo[4,5-e][1,2,4]triazolo[4,3-a]pyridine]
IC50 [1]: < 20 nM
IC50 [2]: < 20 nM

CC(CC(c1ccc(Cl)c(F)c1)N1C[C@H](C)N(c2nc3nncn3c3c2ncn3C[C@@H]2CCCO2)C[C@H]1C)C(F)(F)F (single isomer, unassigned) [Example 17]
IC50 [1]: < 20 nM
IC50 [2]: < 20 nM

C[C@@H]1CN(c2nc3nncn3c3c2ncn3C[C@@H]2CCCO2)[C@@H](C)CN1[C@@H](c1ccc(Cl)cc1)c1ccc(Cl)cn1 (single isomer, unassigned) [Example 21]
IC50 [1]: < 20 nM
IC50 [2]: < 20 nM

CC[C@@H](c1ccc(Cl)cc1)N1C[C@H](C)N(c2nc3nncn3c3c2nc(C)n3C[C@@H]2CCCO2)C[C@H]1C [Example 85, 4-((2S,5R)-4-((S)-1-(4-Chlorophenyl)propyl)-2,5-dimethylpiperazin-1-yl)-2-methyl-1-(((S)-tetrahydrofuran-2-yl)methyl)-1H-[1,2,4]triazolo[3,4-b]purine]
IC50 [1]: < 20 nM
IC50 [2]: < 20 nM

C[C@@H]1CN(c2nc3nncn3c3c2ncn3C[C@@H]2CCCO2)[C@@H](C)CN1C(c1ccc(Cl)cc1)[C@H]1CC1(F)F (single isomer, unassigned) [Example 7]
IC50 [1]: < 20 nM
IC50 [2]: < 20 nM

Cc1nc2c(N3C[C@@H](C)N(Cc4ccc(Cl)cc4)C[C@@H]3C)nc3nncn3c2n1C[C@@H]1CCCO1 [Example 70, 4-((2S,5R)-4-(4-Chlorobenzyl)-2,5-dimethylpiperazin-1-yl)-2-methyl-1-(((S)-tetrahydrofuran-2-yl)methyl)-1H-[1,2,4]triazolo[3,4-b]purine]
IC50 [1]: < 20 nM
IC50 [2]: < 20 nM

Cc1nc2c(N3C[C@@H](C)N(Cc4ccc(Cl)c(F)c4)C[C@@H]3C)nc3nncn3c2n1C[C@@H]1CCCO1 [Example 76, 4-((2S,5R)-4-(4-Chloro-3-fluorobenzyl)-2,5-dimethylpiperazin-1-yl)-2-methyl-1-(((S)-tetrahydrofuran-2-yl)methyl)-1H-[1,2,4]triazolo[3,4-b]purine]
IC50 [1]: < 20 nM
IC50 [2]: < 20 nM

Cc1nc2c(N3C[C@@H](C)N(C(CC(C)C)c4ccc(Cl)c(F)c4)C[C@@H]3C)nc3nncn3c2n1C[C@@H]1CCCO1 (single isomer, unassigned) [Example 18]
IC50 [1]: < 20 nM
IC50 [2]: < 20 nM

Source: patent publication US20250179083A1, “TRICYCLIC TRIAZOLO COMPOUNDS AS DGK INHIBITORS” (Incyte Corporation, priority 2023, published 2025)
